Data on 15 molecules can be found in ChEMBL document CHEMBL1131875, “Selective inhibition of low affinity IgE receptor (CD23) processing: P1' bicyclomethyl substituents” (Bioorg Med Chem Lett, 1999).

Structures are written as SMILES. Some results are limits rather than exact numbers.

Assay [1] addresses T1, Interstitial collagenase (Homo sapiens, UniProt P03956).
T1 sequence (P03956 whole entry): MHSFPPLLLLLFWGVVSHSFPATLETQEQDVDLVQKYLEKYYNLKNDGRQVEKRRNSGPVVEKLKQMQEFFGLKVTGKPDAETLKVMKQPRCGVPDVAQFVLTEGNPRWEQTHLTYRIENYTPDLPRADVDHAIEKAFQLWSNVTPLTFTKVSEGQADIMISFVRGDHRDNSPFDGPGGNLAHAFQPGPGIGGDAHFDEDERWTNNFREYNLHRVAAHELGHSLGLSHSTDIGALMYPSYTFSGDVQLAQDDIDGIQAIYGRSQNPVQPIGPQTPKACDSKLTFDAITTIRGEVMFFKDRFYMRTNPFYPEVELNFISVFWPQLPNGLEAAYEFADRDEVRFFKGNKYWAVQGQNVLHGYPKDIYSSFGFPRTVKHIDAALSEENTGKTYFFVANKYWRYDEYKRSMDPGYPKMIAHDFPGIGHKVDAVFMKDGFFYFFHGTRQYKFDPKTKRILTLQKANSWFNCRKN
The assay can be described thus: Inhibitory activity against matrix metalloprotease (MMP-1).

For assay [2], the target named is T2, Stromelysin-1 (Homo sapiens, UniProt P08254). In words: Inhibition of matrix metalloprotease (MMP-3) at 10 uM.
Target sequence in this assay (P08254 100-477 limits assumed): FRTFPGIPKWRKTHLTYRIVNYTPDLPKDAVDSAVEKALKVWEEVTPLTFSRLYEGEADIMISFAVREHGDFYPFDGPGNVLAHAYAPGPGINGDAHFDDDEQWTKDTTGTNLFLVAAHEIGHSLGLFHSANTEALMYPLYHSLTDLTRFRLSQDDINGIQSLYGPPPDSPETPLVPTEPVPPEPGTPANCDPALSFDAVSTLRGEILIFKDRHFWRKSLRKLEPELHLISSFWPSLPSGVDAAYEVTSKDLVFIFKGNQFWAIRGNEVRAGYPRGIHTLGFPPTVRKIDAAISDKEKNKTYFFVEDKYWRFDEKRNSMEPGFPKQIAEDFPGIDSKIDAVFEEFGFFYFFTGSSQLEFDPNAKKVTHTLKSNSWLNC
Assay [3] concerns the target Matrix metalloproteinase-9 (Homo sapiens, UniProt P14780). In words: Inhibitory activity against matrix metalloprotease (MMP-9).
For assay [4], the target named is T2, Stromelysin-1. The assay can be described thus: Inhibition of matrix metalloprotease (MMP-3).
Target sequence in this assay (P08254 whole entry): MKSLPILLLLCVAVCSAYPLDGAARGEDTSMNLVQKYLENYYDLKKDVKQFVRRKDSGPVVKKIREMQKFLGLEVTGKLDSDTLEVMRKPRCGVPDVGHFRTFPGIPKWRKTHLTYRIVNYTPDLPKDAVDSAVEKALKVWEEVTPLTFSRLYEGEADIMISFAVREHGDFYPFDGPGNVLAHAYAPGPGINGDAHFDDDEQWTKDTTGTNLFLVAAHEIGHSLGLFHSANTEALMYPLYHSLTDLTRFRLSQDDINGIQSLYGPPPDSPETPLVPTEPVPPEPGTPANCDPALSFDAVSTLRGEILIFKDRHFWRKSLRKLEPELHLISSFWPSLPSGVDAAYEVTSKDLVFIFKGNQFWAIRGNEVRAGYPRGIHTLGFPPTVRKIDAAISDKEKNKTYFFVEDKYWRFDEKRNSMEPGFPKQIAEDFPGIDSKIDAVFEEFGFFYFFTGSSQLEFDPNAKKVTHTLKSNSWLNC

Chain of Matrix metalloproteinase-9 (P14780 whole entry): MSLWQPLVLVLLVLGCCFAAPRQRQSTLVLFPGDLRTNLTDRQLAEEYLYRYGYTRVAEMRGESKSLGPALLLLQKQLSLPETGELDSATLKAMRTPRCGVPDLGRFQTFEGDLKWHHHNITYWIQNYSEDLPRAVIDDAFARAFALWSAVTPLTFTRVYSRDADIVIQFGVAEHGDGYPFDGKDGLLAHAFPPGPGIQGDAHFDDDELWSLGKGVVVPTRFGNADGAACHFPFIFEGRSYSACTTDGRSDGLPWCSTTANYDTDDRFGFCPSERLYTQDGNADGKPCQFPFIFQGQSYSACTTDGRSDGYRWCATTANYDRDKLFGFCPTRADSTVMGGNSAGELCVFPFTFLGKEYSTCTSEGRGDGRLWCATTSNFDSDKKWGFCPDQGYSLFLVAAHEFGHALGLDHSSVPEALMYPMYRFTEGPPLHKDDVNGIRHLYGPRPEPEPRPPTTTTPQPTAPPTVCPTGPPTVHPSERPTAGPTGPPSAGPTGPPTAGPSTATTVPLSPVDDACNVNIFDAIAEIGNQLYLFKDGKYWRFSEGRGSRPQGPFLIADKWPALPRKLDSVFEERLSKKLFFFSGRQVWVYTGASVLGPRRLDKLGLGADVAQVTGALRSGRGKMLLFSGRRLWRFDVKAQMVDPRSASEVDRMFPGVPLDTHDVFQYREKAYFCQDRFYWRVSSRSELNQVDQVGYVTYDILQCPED

In turn, `CC(C)(C)[C@H](NC(=O)[C@H](Cc1ccc2ccc(F)cc2c1)[C@H](O)C(=O)NO)C(N)=O` yielded an IC50 in assay [1] greater than 10000 nM. As to `CC(C)(C)[C@H](NC(=O)C(C[C@@H]1CCc2ccccc2C1)[C@H](O)C(=O)NO)C(N)=O` (stereo not given in full), the IC50 in assay [1] was found to be 1800 nM; in assay [3] it was 410 nM. This molecule also yielded an inhibition in assay [2] of 83%.

As for `CNC(=O)[C@H](Cc1ccccc1)NC(=O)C(Cc1ccc2ccccc2c1)C(O)C(=O)NO` (single isomer, unassigned), the IC50 in assay [1] was greater than 1000 nM.

Consider `NC(=O)[C@H](Cc1ccccc1)NC(=O)C(Cc1ccc2ccc(O)cc2c1)C(O)C(=O)NO` (single isomer, unassigned), for which the IC50 in assay [1] was greater than 10000 nM. Turning to `NC(=O)[C@H](Cc1ccccc1)NC(=O)[C@H](Cc1ccc2cc(F)ccc2c1)[C@H](O)C(=O)NO`, the concentration for half-maximal inhibition (IC50) in assay [1] is greater than 10000 nM; in assay [4], 3000 nM; in assay [3], 850 nM. For the molecule `CC(C)(C)[C@H](NC(=O)C(Cc1ccc2ccccc2c1)C(O)C(=O)NO)C(N)=O` (single isomer, unassigned), the figures for the IC50 in assay [1], in assay [4] and in assay [3] were greater than 10000 nM, greater than 10000 nM and 640 nM, respectively. For `NC(=O)[C@H](Cc1ccccc1)NC(=O)C(Cc1ccc2ccccc2c1)C(O)C(=O)NO` (single isomer, unassigned), the IC50 in assay [1] was greater than 10000 nM. Still for that read-out and setting: under `CNC(=O)[C@@H](NC(=O)C(Cc1ccc2ccccc2c1)C(O)C(=O)NO)C(C)(C)C` (single isomer, unassigned) stands greater than 1000 nM.

Regarding `CC(C)(C)[C@H](NC(=O)C(Cc1cnc2ccccc2c1)C(O)C(=O)NO)C(N)=O` (single isomer, unassigned), the IC50 in assay [1] was 5000 nM; in assay [4], 3000 nM; in assay [3], 190 nM.

Consider `NC(=O)[C@H](Cc1ccccc1)NC(=O)[C@H](Cc1cc2ccccc2s1)[C@H](O)C(=O)NO`, for which it took 140 nM to reach half-maximal inhibition in assay [1] (IC50). Same read-out and setting: under `NC(=O)[C@H](Cc1ccccc1)NC(=O)[C@H](Cc1ccc2ccc(F)cc2c1)[C@H](O)C(=O)NO` stands greater than 10000 nM. Molecule `NC(=O)[C@H](Cc1ccccc1)NC(=O)[C@H](Cc1nc2ccccc2s1)[C@H](O)C(=O)NO` returned an IC50 in assay [1] of 500 nM. Still for that read-out and setting: under `O=C(C[C@@H](Cc1ccc2ccccc2c1)C(=O)N[C@@H](Cc1ccccc1)C(=O)NCc1ccccc1)NO` stands greater than 1000 nM; under `CNC(=O)[C@H](Cc1ccccc1)NC(=O)[C@H](Cc1cc2ccccc2o1)[C@H](O)C(=O)NO`, less than 100 nM.

For `CC(C)(C)[C@H](NC(=O)C(C[C@H]1CCc2ccccc2C1)[C@H](O)C(=O)NO)C(N)=O` (stereo not given in full), the values for the IC50 in assay [1], in assay [4] and in assay [3] were 800 nM, 230 nM and 230 nM, respectively.
